Source: patent US20220016200A1, “PHARMACEUTICAL COMPOSITION FOR THE TREATMENT OF CYSTIC FIBROSIS” (GALENUS G.H. AG, priority 2018, published 2022)

Columns and labels:
A. junii 1397597 [1] = assay: Checkerboard fusidic acid (FD) and colistin sulfate (CS), MIC/FIC and MBC/FBC; assay type: cell-based, Acinetobacter junii; conditions: agent alone, CAMHB, 1*10^6 CFU/ml
Protocol: (§1) Checkerboard assays between fusidic acid (FD) and colistin sulfate (CS) with a bacterial load 5(1-10)*10^5 CFU/ml in cationic adapted Mueller Hinton broth (CAMHB). • a. Antimicrobial stock solutions were prepared using sterile distilled water; • b. CS was added along the ordinate; FD was added along the abscissa to 96 well, flat bottom, polystyrene panels with no treatment. Colistin alone was tested in triplicates; • c. Serial 2-fold dilutions starting with 640 […] CS and 640 μg/ml FD were made; 15 μl volume of the serial dilutions were added for each agent to the appropriate wells—final volume at 30 μl; • d. For each agent tested alone an additional 15 μl media was added to the well. 30 μl were added in control wells where none of the agent was tested. The negative control well contains 150 μl media without any additions; • e. From an overnight bacterial culture in tryptic soy broth, 100 μL was added to 10 mL of fresh tryptic soy broth. This was then incubated at 37° C. for 1.5 hour at 180 rpm; • f. Bacteria in 120 μl CAMHB were added to each well (end concentration 5(1-10)*10^5 CFU/ml); • g. Plates were incubated at 37° C. in an ambient air incubator for 24 h • h. Turbidity at OD600 is determined with a plate photometer • i. By using a one-time inoculator 3 μl from each well of the 96-well plate were transferred to three blood agar plates. The plates were incubated over night at 37° C. in an ambient air incubator; • j. MIC values are defined as lowest concentration which restricts bacterial growth to OD600≤0.1; • k. MBC values were determined by visual reading the lowest concentration which inhibits 99.9% of the growth of bacteria in the wells; • l. Determination of the fractional inhibitory concentration (FIC) index and fractional bactericidal concentration (FBC) index and characterization of antimicrobial interactions was assessed;
(§2) FIC calculation was carried out as: (MIC of drug A, tested in combination)/(MIC of drug A, tested alone)+(MIC of drug B, tested in combination)/(MIC of drug B, tested alone). FBC calculation was carried out just as well;
(§3) Interactive categories were calculated from checkerboard analysis using MIC results from testing each agent alone and MIC results from the combination wells adjacent to the wells with growth in them.
(§4) Determination of the fractional inhibitory concentration (FIC) index and fractional bactericidal concentration (FBC) index and characterization of antimicrobial interactions was assessed:
(§5) (ii) Indifference; FIC/FBC>0.5 to <4.0
(§6) (iii) Antagonism; FIC/FBC≥4.0
a. Acinetobacter junii 1391597 (IHMA), colistin resistant (CS 2/2-2/8)

A. haemolyticus 1655843 [2] = assay: as above; assay type: cell-based, Acinetobacter haemolyticus; conditions: agent alone, CAMHB, 1*10^6 CFU/ml
Protocol: as §1, §2, §3, §4, §5, §6
c. Acinetobacter haemolyticus 1655843 (IHMA), colistin resistant (3xCS>16/>16-64/>64)

S. maltophilia 1221783 [3] = assay: Checkerboard fusidic acid (FD) and colistin sulfate (CS), MIC/FIC; assay type: cell-based, Stenotrophomonas maltophilia; conditions: agent alone, CAMHB, 1*10^6 CFU/ml, 24 h
Protocol: Checkerboard assays between fusidic acid (FD) and colistin sulfate (CS) with a bacterial load 5(1-10)*10^5 CFU/ml in cationic adapted Mueller Hinton broth (CAMHB). • a. Antimicrobial stock solutions were prepared using sterile distilled water; • b. CS was added along the ordinate; FD was added along the abscissa to 96 well, flat bottom, polystyrene panels with no treatment. Colistin alone was tested in triplicates; • c. Serial 2-fold dilutions starting with 640 […] CS and 640 μg/ml FD were made; 15 μl volume of the serial dilutions were added for each agent to the appropriate wells—final volume at 30 μl; • d. For each agent tested alone an additional 15 μl media was added to the well. 30 μl were added in control wells where none of the agent was tested. […] Turbidity at OD600 is determined with a plate photometer • i. […] Determination of the fractional inhibitory concentration (FIC) index and fractional bactericidal concentration (FBC) index and characterization of antimicrobial interactions was assessed; […]
as §3
Determination of the fractional inhibitory concentration (FIC) index and fractional bactericidal concentration (FBC) index and characterization of antimicrobial interactions was assessed: […]

A. guillouiae 1285286 [4] = assay: Checkerboard fusidic acid (FD) and colistin sulfate (CS), MIC/FIC and MBC/FBC; assay type: cell-based, Acinetobacter guillouiae; conditions: agent alone, CAMHB, 1*10^6 CFU/ml
Protocol: as §1, §2, §3, §4, §5, §6
d. Acinetobacter guillouiae 1285286 (IHMA), colistin resistant (2xCS 2/4)

S. maltophilia 1237289 [5] = assay: Checkerboard fusidic acid (FD) and colistin sulfate (CS), MIC/FIC; assay type: cell-based, Stenotrophomonas maltophilia; conditions: S. maltophilia 1237289, agent alone, CAMHB, 1*10^6 CFU/ml
Protocol: as §1, §2, §3, §4, §5, §6
e. Stenotrophomonas maltophilia 1237289 (IHMA), colistin resistant (CS 2/4-4/8-8/8)

A. nosocomialis 1461911 [6] = assay: Checkerboard fusidic acid (FD) and colistin sulfate (CS), MIC/FIC and MBC/FBC; assay type: cell-based, Acinetobacter nosocomialis; conditions: A. nosocomialis 1461911, agent alone, CAMHB, 1*10^6 CFU/ml
Protocol: as §1, §2, §3, §4, §5, §6
b. Acinetobacter nosocomialis 1461911 (IHMA), colistin resistant (3xCS 4/8)

A. guillouiae 1285286 [7] = assay: Checkerboard colistin sulphate (CS) plus teicoplanin (TP), MIC/FIC and MBC/FBC; assay type: cell-based, Acinetobacter guillouiae; conditions: agent alone, CAMHB, 5*10^5 CFU/ml
Protocol: (§7) Checkerboard analysis to determine minimal inhibitory concentration (MIC)/fractional inhibitory concentration (FIC) and minimal […] (MBC)/fractional […] (FBC) values of colistin sulphate (CS) plus teicoplanin (TP) for 6 Gram-negative strains with a bacterial load 5(1-10)*10^5 CFU/ml in a cation-adjusted Mueller-Hinton broth (CAMHB). • a. Antimicrobial stock solutions were prepared using sterile distilled water • b. CS was added along the ordinate; TP was added along the abscissa to 96 well, flat bottom, polystyrene panels with no treatment. Colistin alone was tested in triplicates. • c. Serial 2-fold dilutions starting with 640 μg/ml CS and 640 μg/ml TP were made; 15 μl volume of the serial dilutions were added for each agent to the appropriate wells; final volume at 30 μl • d. For each agent tested alone an additional 15 μl media was added to the well. 30 μl were added in control wells where none of the agent was tested. The negative control well contains 150 μl media without any additions • e. From an overnight bacterial culture in tryptic soy broth, 100 μL was added to 10 mL of fresh tryptic soy broth. This was then incubated at 37° C. for 1.5 hour at 180 rpm. • f. Bacteria in 120 μl CAMHB were added to each well (end concentration 5(1-10)*10^5 CFU/ml) • g. Plates were incubated at 37° C. in an ambient air incubator for 24 h • h. Turbidity at OD600 is determined with a plate photometer • i. By using a one-time inoculator 3 μl from each well of the 96-well plate were transferred to three blood agar plates. The plates were incubated over night at 37° C. in an ambient air incubator • j. MIC values are defined as lowest concentration which restricts bacterial growth to OD600 ≤0.1 • k. MBC values were determined by visual reading the lowest concentration which inhibits 99.9% of the growth of bacteria in the wells • l. Determination of the fractional inhibitory concentration (FIC) index and fractional bactericidal concentration (FBC) index and characterization of antimicrobial interactions was assessed […]
(§8) FIC calculation was carried out as: (MIC of drug A, tested in combination)/(MIC of drug A, tested alone)+(MIC of drug B, tested in combination)/(MIC of drug B, tested alone). FBC calculation was carried out just as well […]
(§9) Interactive categories were calculated from checkerboard analysis using MIC results from testing each agent alone and MIC results from the combination wells adjacent to the wells with growth in them […]
b. Indifference; FIC/FBC>0.5 to<4.0 c. Antagonism; FIC/FBC≥4.0 d. A. guillouiae 1285286 (IHMA), colistin resistant

[8] = in vivo; cited from earlier work
A. haemolyticus 1655843 [9] = assay: Checkerboard colistin sulphate (CS) plus teicoplanin (TP), MIC/FIC and MBC/FBC; assay type: cell-based, Acinetobacter haemolyticus; conditions: agent alone, CAMHB, 5*10^5 CFU/ml
Protocol: as §7, §8, §9
b. Indifference; FIC/FBC>0.5 to<4.0 c. Antagonism; FIC/FBC≥4.0 c. A. haemolyticus 1655843 (IHMA), colistin resistant

A. nosocomialis 1461911 [10] = assay: as above; assay type: cell-based, Acinetobacter nosocomialis; conditions: agent alone, CAMHB, 5*10^5 CFU/ml
Protocol: as §7, §8, §9
b. Indifference; FIC/FBC>0.5 to<4.0 c. Antagonism; FIC/FBC≥4.0 b. A. nosocomialis 1461911 (IHMA), colistin resistant

S. maltophilia 1237289 [11] = assay: as above; assay type: cell-based, Stenotrophomonas maltophilia; conditions: S. maltophilia 1237289, agent alone, CAMHB, 5*10^5 CFU/ml
Protocol: as §7, with “Plates were incubated at 37° C. in an ambient air incubator for 24 h • h.” left out
as §8, §9
b. Indifference; FIC/FBC>0.5 to<4.0 c. Antagonism; FIC/FBC≥4.0 f. S. maltophilia 1237289 (IHMA), colistin resistant

[12] = tested on: Methicillin-resistant Staphylococcus aureus (MRSA); assay: Three-step decolonization protocol for MRSA in paediatric patients with cystic fibrosis; assay type: in vivo; conditions: patients are to receive a further five-day intravenous treatment to increase the success rate
Protocol: Methicillin-resistant Staphylococcus aureus (MRSA) is a bacterial pathogen in patients with cystic fibrosis (CF) although its clinical effects can be variable. In a three-step decolonization protocol for MRSA 15 paediatric patients are treated during a long follow-up period where 50% are successfully decolonized following one five-day course of i.v. Colistin and fusidic acid. To increase the success rate the patients are to receive a five-day intravenous teicoplanin treatment to clear MRSA colonization to 90-100%.

S. maltophilia 1221783 [13] = assay: Checkerboard colistin sulphate (CS) plus teicoplanin (TP), MIC/FIC and MBC/FBC; assay type: cell-based, Stenotrophomonas maltophilia; conditions: agent alone, CAMHB, 5*10^5 CFU/ml, 24 h
Protocol: as §7, with “MIC values are defined as lowest concentration which restricts bacterial growth to OD600 ≤0.1 • k. MBC values were determined by visual reading the lowest concentration which inhibits 99.9% of the growth of bacteria in the wells • l.” left out
as §9

A. junii 1397597 [14] = assay: as above; assay type: cell-based, Acinetobacter junii; conditions: agent alone, CAMHB, 5*10^5 CFU/ml
Protocol: as §7, with “MIC values are defined as lowest concentration which restricts bacterial growth to OD600 ≤0.1 • k. MBC values were determined by visual reading the lowest concentration which inhibits 99.9% of the growth of bacteria in the wells • l.” left out
as §9

[15] = after 48 h growth (values in brackets)

Compound: CC(=O)O[C@H]1C[C@@]2(C)[C@@H](C[C@@H](O)[C@H]3[C@@]4(C)CC[C@@H](O)[C@@H](C)[C@@H]4CC[C@@]32C)/C1=C(\CCC=C(C)C)C(=O)O [FD, fusidic acid]
- MIC (A. junii 1397597 [1]; A. junii 1397597, 24 h): 32 mg/1l
- MBC (A. junii 1397597 [1]; Acinetobacter junii, 1397597, A. junii 1397597): 64 µg/mL
- MIC (A. haemolyticus 1655843 [2]; A. haemolyticus 1655843, 24 h): 32 mg/1l
- MBC (A. haemolyticus 1655843 [2]; Acinetobacter haemolyticus, 1655843, A. haemolyticus 1655843): 64 µg/mL
- MIC (S. maltophilia 1221783 [3]): 64 mg/1l
- MIC (A. guillouiae 1285286 [4]; A. guillouiae 1285286, 24 h): 16 mg/1l
- MBC (A. guillouiae 1285286 [4]; Acinetobacter guillouiae, 1285286, A. guillouiae, read-out: MBC): > 64 µg/mL
- MIC (S. maltophilia 1237289 [5]; 24 h): >64 mg/1l
- MIC (S. maltophilia 1237289 [5]; [15]): (>64) mg/1l
- MIC (A. nosocomialis 1461911 [6]; 24 h): >64 mg/1l
- MBC (A. nosocomialis 1461911 [6]; Acinetobacter nosocomialis): > 64 µg/mL

Compound: teicoplanin [TP]
- MIC (A. guillouiae 1285286 [7]; A. guillouiae 1285286, 24 h): >64 µg/mL
- MBC (A. guillouiae 1285286 [7]; A. guillouiae): >64 µg/mL
- terminal half-life, mean (±SD) [8]: 157 (±93) h
- terminal half-life, median (range) [8]: 168 (111-278) h
- MIC (A. haemolyticus 1655843 [9]; A. haemolyticus 1655843, 24 h): >64 µg/mL
- MBC (A. haemolyticus 1655843 [9]; A. haemolyticus): >64 µg/mL
- MIC (A. nosocomialis 1461911 [10]; A. nosocomialis 1461911, 24 h): >64 µg/mL
- MBC (A. nosocomialis 1461911 [10]; A. nosocomialis): >64 µg/mL
- MIC (S. maltophilia 1237289 [11]; 24 h): >64 µg/mL
- MIC (S. maltophilia 1237289 [11]; [15]): (>64) mg/l
- clear MRSA colonization to [12]: 90-100%
- MIC (S. maltophilia 1221783 [13]): >64 µg/mL
- MIC (A. junii 1397597 [14]; A. junii 1397597, 24 h): >64 µg/mL
- MBC (A. junii 1397597 [14]; A. junii): >64 µg/mL
